We go through one compound from article PMC8229129, “Local Colonic Administration of a Serine Protease Inhibitor Improves Post-Inflammatory Visceral Hypersensitivity in Rats” (Pharmaceutics, 2021).

In one test the test system is plasmin. More on the design: method as in PMID 29911328. The following applies: in vitro; cited from earlier work.
For test [1], the system named is visceral hypersensitivity in post-colitis rats. On the set-up: method as in PMID 29911328. The following applies: TNBS-induced post-inflammatory rats, intraperitoneally; cited from earlier work.
The next test deals with tryptase. More on the design: method as in PMID 29911328. The following applies: in vitro; cited from earlier work.
The test system of test [2] is trypsin-like, chymotrypsin-like, cathepsin G, elastase-like, and kallikrein activities in colon tissue. Nature of the test: Proteolytic activities in colonic tissue of control rats after intracolonic administration. The format is in vivo, Sprague–Dawley rats. The conditions noted are these: 5 mg/kg intracolonic. The procedure: (§1) The serine protease inhibitor UAMC-00050 (0.1–1.0–2.5–5.0 mg/kg, dissolved in a volume of 200 µL) or its vehicle (5% DMSO in H2O) was delivered colonically using a flexible catheter (18 G, length 4.5 cm) under short-lasting isoflurane anesthesia (5.0% induction, 1.5% maintenance). To prevent expulsion of the enema, animals were held in a Trendelenburg position for 90 s. Doses for intracolonic administration were based on the doses known to be effective via an i.p. administration and adapted afterwards based on preliminary results.
(§2) Trypsin-like, chymotrypsin-like, cathepsin G, elastase-like, and kallikrein activities were determined in colon tissue and fecal samples to profile serine protease activity. […]
(§3) Boc-Gln-Ala-Arg-AMC (75 µM) and n-Tosyl-Gly-Pro-Arg-AMC (100 µM) in 50 mM Tris-HCl pH 8.0 containing 120 mM NaCl were used to measure the trypsin-like activity. […] The fluorescence was measured during 20 min at 37 °C on a Tecan Infinite F200 Pro microtiter plate reader. The other activities were assessed in a similar assay, using the substrates mentioned below. Chymotrypsin-like and kallikrein activity were measured with Suc-Ala-Ala-Pro-Phe-AMC (0.45 mM) and H-Pro-Phe-Arg-AMC (0.45 mM), respectively. Elastase-like activity was measured using two assays, one using Suc-Ala-Ala-Pro-Val-AMC as a substrate and the other using Suc-Ala-Ala-Ala-AMC (both 0.45 mM). […]

The next test concerns matriptase. On the set-up: method as in PMID 29911328. The following applies: in vitro; cited from earlier work.
For another test, the system named is kallikrein 8. On the set-up: method as in PMID 29911328. The conditions noted are these: in vitro; cited from earlier work.
Test [3] deals with colonic mucosal inflammation. Nature of the test: Colonoscopic inflammatory score. The format is in vivo, Sprague–Dawley rats. The conditions noted are these: for Colonoscopy, Day of VMR: score 0–19, mean ± SEM, n = 8. As to the method:
An in vivo colonoscopy was performed to assess the presence and extent of TNBS-induced colitis, as previously described. Briefly, rats were anesthetized (ketamine/xylazine, 35/5 mg/kg, i.p.) and placed in a supine position. The lubricated tip of a pediatric upper gastrointestinal endoscope (Olympus GIF-N30) was carefully introduced into the colorectum and advanced until the hepatic flexure was reached. Then, the endoscope was slowly withdrawn while assessing the mucosal damage using a validated and standardized scoring system (Supplementary Table S1). In brief, a total inflammatory score (0–19) was calculated based on the extent of ulcerations, as well as on the presence of edema, bleeding, and colonic stenosis.

A further test relates to dry eye syndrome. More on the design: method as in PMID 33057006. The conditions noted are these: rat model of dry eye syndrome; cited from earlier work.
In another test the test system is thrombin. On the set-up: method as in PMID 29911328. The conditions noted are these: in vitro; cited from earlier work.
The test system of test [4] is elastase-like, cathepsin G and kallikrein activities in colonic tissue. In words: Other specific proteolytic activities in colonic tissue of post-colitis rats after intracolonic administration. The test is classed as in vivo, Sprague–Dawley rats. The following applies: 5 mg/kg intracolonic, 90 min. The procedure: as §1, §2, §3

Regarding `CC(=O)Nc1ccc(OP(=O)(Oc2ccc(NC(C)=O)cc2)C(Cc2ccc(N=C(N)N)cc2)NC(=O)OCc2ccccc2)cc1.Cl` (stereo not drawn) [UAMC-00050], in the test with plasmin, the inhibition of plasmin result is listed as “efficiently inhibits”. Also, the “Dose required to obtain complete reversal of visceral hypersensitivity” value in test [1] was 1.0 mg/kg. For the same compound, the inhibition of tryptase result in the test with tryptase is recorded as “efficiently inhibits”. The “Effect on proteolytic activities in colonic tissue” value in test [2] is recorded as “did not alter”. For the same compound, the inhibition of matriptase entry in the test on matriptase is recorded as “efficiently inhibits”. In addition, in the test on kallikrein 8, the “inhibition of kallikrein 8” value is recorded as “efficiently inhibits”. The “Colonoscopy, Day of VMR” value in [3] (control rats, 5.0 mg/kg intracolonic) is on record as 0.0 ± 0.0; in [3] (post-colitis rats, 0.1 mg/kg intracolonic), 0.0 ± 0.0; in test [3] (post-colitis rats, 1.0 mg/kg intracolonic) it was 0.0 ± 0.0; in [3] (post-colitis rats, 2.5 mg/kg intracolonic) it was 0.0 ± 0.0; in [3] (post-colitis rats, 5.0 mg/kg intracolonic) it was 0.0 ± 0.0. In test [3] (single intracolonic administration, control and post-colitis rats), the “Effect on colonoscopic inflammatory scores” value is recorded as “no effect”. Moreover, in the test on dry eye syndrome, the Effect on inflammation entry was “anti-inflammatory effects”. Besides, the inhibition of thrombin result in the test on thrombin is “efficiently inhibits”. Further, in test [4], the “Effect on the other specific proteolytic activities (elastase-like, cathepsin G, kallikrein) in colonic tissue” value was “No effect”.
